US10662259B2, “Glycogen-based water solubility enhancers” (AZIENDE CHIMICHE RIUNITE ANGELINI FRANCESCO A.C.R.A.F. …, priority 2013, dated 2020)

What was measured:
[1] = Solubility enhancement of astaxanthin in water solutions of the compounds (HPLC); settings: water solution containing 5 mg/mL of compound, excess astaxanthin (1 mg/mL), room temperature, 24 hours, 0.45 μm filter
[2] = β-carotene alone; cited from earlier work
[3] = Solubility enhancement of β-carotene in water solutions of the compounds (HPLC); settings: 5 mg/mL compound in water, excess β-carotene

| Aqueous solubility of astaxanthin in the presence of the compound [1] [µg/mL] | Visual aspect of the solution with β-carotene [3] | Compound | Water solubility [2] |
| --- | --- | --- | --- |
| 0.5 |  | OC[C@H]1O[C@@H]2O[C@H]3[C@H](O)[C@@H](O)[C@@H](O[C@H]4[C@H](O)[C@@H](O)[C@@H](O[C@H]5[C@H](O)[C@@H](O)[C@@H](O[C@H]6[C@H](O)[C@@H](O)[C@@H](O[C@H]7[C@H](O)[C@@H](O)[C@@H](O[C@H]8[C@H](O)[C@@H](O)[C@@H](O[C@H]1[C@H](O)[C@H]2O)O[C@@H]8CO)O[C@@H]7CO)O[C@@H]6CO)O[C@@H]5CO)O[C@@H]4CO)O[C@@H]3CO [Compound 15, β-cyclodextrin (CAVAMAX W7)] |  |
|  |  | CC1=C(/C=C/C(C)=C/C=C/C(C)=C/C=C/C=C(C)/C=C/C=C(C)/C=C/C2=C(C)CCCC2(C)C)C(C)(C)CCC1 [β-carotene] | below 1 mg/L |
| 0.7 | pale pink color | HP-β-cyclodextrin (CAVASOL W7 HP) [Compound 16] |  |
| 1.2 |  | OC[C@H]1O[C@@H]2O[C@H]3[C@H](O)[C@@H](O)[C@@H](O[C@H]4[C@H](O)[C@@H](O)[C@@H](O[C@H]5[C@H](O)[C@@H](O)[C@@H](O[C@H]6[C@H](O)[C@@H](O)[C@@H](O[C@H]7[C@H](O)[C@@H](O)[C@@H](O[C@H]8[C@H](O)[C@@H](O)[C@@H](O[C@H]9[C@H](O)[C@@H](O)[C@@H](O[C@H]1[C@H](O)[C@H]2O)O[C@@H]9CO)O[C@@H]8CO)O[C@@H]7CO)O[C@@H]6CO)O[C@@H]5CO)O[C@@H]4CO)O[C@@H]3CO [Compound 14, γ-cyclodextrin (CAVAMAX W8)] |  |
